# Reference: patent US8952222B2, “Herbicide resistant sunflower plants derived from RW-B cultivar” (Anglo Netherlands Grain B.V., priority 2008, dated 2015)
# Several values for one entry are separate records, joined by “and”; a condition that tells them apart may be missing. Identical values can stand only once. Marks after values point to notes of the source that are not given here.
# Assays:
# Format in all cases: in vivo
# sunflower line RW-B [1] = assay: Whole plant dose response to imazapyr; settings: from 4x to 10x rates of herbicide application, 14 DAT
# Procedure: (§1) Seeds were sown in Petri dishes and, after germination; plantlets were transplanted to pots of 10 cm of diameter in a potting media consisting of equal parts of vermiculite, soil and sand. Plants were grown in a greenhouse under natural light conditions supplemented with 400 W sodium halide lamps to provide a 16 hr day-length. Day/night temperatures were 25 and 20° C., respectively. At the V2-V4 stage (Schneiter & Miller, 1981) 10 plants of each genotype were randomly assigned to each treatment consisting of eight imazapyr doses (0, 40, 80, 160, 320, 480, 640 and 800 g ai/ha, without treatment, 0.5×, 1×, 2×, 4×, 6×, 8× and 10× respectively), and a zero-time biomass determination. Experiment was arranged as a randomized block design with a full factorial (sunflower line x treatment) arrangement of treatments and 10 replications.
# (§2) On the day of herbicide application ten plants of each genotype were cut at the cotyledonal node and dried at 60° C. for 48 hrs for zero-time dried weight determination.
# (§3) The remaining plants were maintained for 14 days after imazapyr treatment (DAT) and their height, Phytotoxicity Index (PI) and above ground dry biomass were determined. Height was determined as the distance between the cotyledonal node and the apex of each plant. Above ground biomass data from each line were converted to biomass accumulation after application by subtracting the appropriate average zero-time biomass from each sample. Dry biomass data were converted to percentages of the untreated control plants within each line to allow direct comparisons between groups. […] Plants without any symptoms were recorded as “0”, increasing levels of stunting and chlorosis with respect to the untreated control plants were recorded as “1” to “4”, increasing levels of leaf abnormalities and leaf necrosis were recorded from “5” to “8”, and dead plants with total necrosis of the apex were recorded as “9”.
# sunflower line B770 [2] = assay: Whole plant dose response to imazapyr; settings: line B770 (WT-Susceptible), 14 DAT; for Dry weight (as a % of the untreated plants): above ground biomass; for Phytotoxicity Index: scale 0-9
# Procedure: as §1, §2, §3
# sunflower line B770 [3] = assay: Greenhouse spray with imazapyr, visual inspection for injury; settings: imazapyr 80 gr ai/ha, two weeks after treatment
# Procedure: (§4) 300 seeds of a wild sunflower population known to be tolerant to IMIs were sown under greenhouse conditions at Nidera Experimental Station in Venado Tuerto, Santa Fe, Argentina, together with the control lines HA89, B770 (Susceptible—[…]), BTI-M1 and RHA426 (Resistant—“R”). At the V4 stage all the plants were sprayed with imazapyr at a rate of 80 gr ai/ha. Two weeks after treatment, all the plants were evaluated by visual inspection for injury. S lines HA89 and B770 were killed by the treatment. […] In total, […] plants of the wild population resisted the herbicide treatment and 129 were killed (categorized as S).
# One R plant (RW-73) was used as male in crosses with the cultivated susceptible lines HA89 and B770. Ten to 20 F1 plants from each cross were sprayed with imazapyr at a rate of 80 gr ai/ha, using B770 (S) and BTI-M1 (R) as controls. […] However, imazapyr treatment killed the B770 plants.
# sunflower line HA89 = assay: as above; settings: imazapyr 80 gr ai/ha at V4, two weeks after treatment
# Procedure: as §4
# sunflower line RHA426 [4] = assay: as above; settings: imazapyr 80 gr ai/ha at V4, two weeks after treatment
# Procedure: as §4
# sunflower line BTI-M1 = assay: as above; settings: imazapyr 80 gr ai/ha at V4, two weeks after treatment
# Procedure: as §4
# sunflower line RHA426 [5] = assay: Allelism test, challenge with imazapyr; settings: control line RHA426; imazapyr 320 g a.i. ha-1 at V2-V4
# Description: RW-B plants were crossed with RHA426 in order to determine if the resistant gene in RW-B is allelic to Imr1, the mutation previously described in imidazolinone resistant inbred lines. In this cross, F1 hybrids plants were self pollinated and backcrossed to RHA426 to obtain the F2 and BC1F1 generations, respectively. Plants from the parents and from F1, F2 and BC were challenged with 160 g a.i. ha^−1 and 320 g a.i. ha^−1 of imazapyr at the V2-V4 stage. Post challenge, plants were scored as described above.
# On the other hand, when F2 and BC populations were scored after applying herbicide at the higher rate (320 g a.i. ha^−1), segregation for susceptibility could be observed. Only two phenotypic classes were detected, a resistant class composed of plants that were without any sign of injury or only slight symptoms, and a susceptible phenotype that was killed at this dose in much the same way as the control line RHA426.
# sunflower line SuBL = assay: Whole plant dose response to metsulfuron; settings: line SuBL (P197L), 14 DAT; for Dry weight (as a % of the untreated plants): above ground biomass; for Phytotoxicity Index: scale 0-9
# Procedure: (§5) Seeds were sown in Petri dishes and, after germination, plantlets were transplanted to pots of 10 cm of diameter in a potting media consisting of equal parts of vermiculite, soil and sand. Plants were grown in a greenhouse under natural light conditions supplemented with 400 W sodium halide lamps to provide a 16 hr daylight. Day/night temperatures were 25 and 20° C., respectively. […] Experiment was arranged as a randomized block design with a full factorial (sunflower line x treatment) arrangement of treatments and 10 replications.
# as §2
# (§6) […] Above ground biomass data from each line were converted to biomass accumulation after application by subtracting the appropriate average zero-time biomass from each sample. Dry biomass data were converted to percentages of the untreated control plants within each line to allow direct comparisons between groups. […] Plants without any symptoms were recorded as “0”, increasing levels of stunting and chlorosis with respect to the untreated control plants were recorded as “1” to “4”, increasing levels of leaf abnormalities and leaf necrosis were recorded from “5” to “8”, and dead plants with total necrosis of the apex were recorded as “9”.
# sunflower line B770imi = assay: Whole plant dose response to metsulfuron; settings: line B770IMI (A205V), 14 DAT; for Dry weight (as a % of the untreated plants): above ground biomass; for Phytotoxicity Index: scale 0-9
# Procedure: as §5, §2, §6
# sunflower line RW-B [6] = assay: Whole plant dose response to metsulfuron; settings: line RW-B (W574L), 14 DAT; for Dry weight (as a % of the untreated plants): above ground biomass; for Phytotoxicity Index: scale 0-9
# Procedure: as §5, §2, §6
# sunflower line B770 [7] = assay: Whole plant dose response to metsulfuron; settings: 14 DAT; for Dry weight (as a % of the untreated plants): above ground biomass, line Suscp; for Phytotoxicity Index: line B770 (WT-Susceptible), scale 0-9
smiles,measurement,setting,value
CC(C)C1(C)N=C(c2ncccc2C(=O)O)NC1=O (stereo not drawn) [imazapyr],"height, % of the untreated control plants",sunflower line RW-B [1],75%
same,Dry weight (as a % of the untreated plants),sunflower line B770 [2]; imazapyr 0.5x = 40 g ai/ha,32.7^d %
same,Dry weight (as a % of the untreated plants),sunflower line B770 [2]; imazapyr 1x = 80 g ai/ha,30.2^d %
same,Dry weight (as a % of the untreated plants),sunflower line B770 [2]; imazapyr 2x = 160 g ai/ha,27.6^d %
same,Dry weight (as a % of the untreated plants),sunflower line B770 [2]; imazapyr 4x = 320 g ai/ha,26.5^d %
same,Dry weight (as a % of the untreated plants),sunflower line B770 [2]; imazapyr 6x = 480 g ai/ha,25.9^d %
same,Dry weight (as a % of the untreated plants),sunflower line B770 [2]; imazapyr 8x = 640 g ai/ha,25.7^d %
same,Dry weight (as a % of the untreated plants),sunflower line B770 [2]; imazapyr 10x = 800 g ai/ha,25.2^d %
same,Height (as % of the untreated plants),sunflower line B770 [2]; imazapyr 0.5x = 40 g ai/ha,35.0% and 35.0^c %
same,Phytotoxicity Index,sunflower line B770 [2]; imazapyr 0.5x = 40 g ai/ha,8.9^a
same,Height (as % of the untreated plants),sunflower line B770 [2]; imazapyr 1x = 80 g ai/ha,31.8^c %
same,Phytotoxicity Index,sunflower line B770 [2]; imazapyr 1x = 80 g ai/ha,9^a
same,Height (as % of the untreated plants),sunflower line B770 [2]; imazapyr 2x = 160 g ai/ha,31.9^d %
same,Phytotoxicity Index,sunflower line B770 [2]; imazapyr 2x = 160 g ai/ha,9^a
same,Height (as % of the untreated plants),sunflower line B770 [2]; imazapyr 4x = 320 g ai/ha,31.9^d %
same,Phytotoxicity Index,sunflower line B770 [2]; imazapyr 4x = 320 g ai/ha,9^a
same,Height (as % of the untreated plants),sunflower line B770 [2]; imazapyr 6x = 480 g ai/ha,31.6^d %
same,Phytotoxicity Index,sunflower line B770 [2]; imazapyr 6x = 480 g ai/ha,9^a
same,Height (as % of the untreated plants),sunflower line B770 [2]; imazapyr 8x = 640 g ai/ha,31.7^d %
same,Phytotoxicity Index,sunflower line B770 [2]; imazapyr 8x = 640 g ai/ha,9^a
same,Height (as % of the untreated plants),sunflower line B770 [2]; imazapyr 10x = 800 g ai/ha,31.4^c %
same,Phytotoxicity Index,sunflower line B770 [2]; imazapyr 10x = 800 g ai/ha,9^a
same,injury by visual inspection,sunflower line B770 [3],killed
same,injury by visual inspection,sunflower line HA89,killed
same,injury by visual inspection,sunflower line RHA426 [4],signs of chlorosis
same,injury by visual inspection,sunflower line BTI-M1,did not present any signs of damage
same,response to imazapyr,sunflower line RHA426 [5],killed
COc1nc(C)nc(NC(=O)NS(=O)(=O)c2ccccc2C(=O)O)n1 [metsulfuron],Dry weight (as a % of the untreated plants),sunflower line SuBL; metsulfuron 0.5x = 2.5 g ai/ha,83.3% and 83.3^b %
same,Dry weight (as a % of the untreated plants),sunflower line SuBL; metsulfuron 1x = 5 g ai/ha,72.4^b %
same,Dry weight (as a % of the untreated plants),sunflower line SuBL; metsulfuron 2x = 10 g ai/ha,52.2^b %
same,Dry weight (as a % of the untreated plants),sunflower line SuBL; metsulfuron 3x = 15 g ai/ha,35.7^b %
same,Dry weight (as a % of the untreated plants),sunflower line SuBL; metsulfuron 4x = 20 g ai/ha,30.3% and 30.3^b %
same,Phytotoxicity Index,sunflower line SuBL; metsulfuron 2x = 10 g ai/ha,4.3^c
same,Phytotoxicity Index,sunflower line SuBL; metsulfuron 3x = 15 g ai/ha,7.2^b
same,Dry weight (as a % of the untreated plants),sunflower line B770imi; metsulfuron 0.5x = 2.5 g ai/ha,42^c %
same,Dry weight (as a % of the untreated plants),sunflower line B770imi; metsulfuron 1x = 5 g ai/ha,30.1^c %
same,Dry weight (as a % of the untreated plants),sunflower line B770imi; metsulfuron 2x = 10 g ai/ha,30.4^c %
same,Dry weight (as a % of the untreated plants),sunflower line B770imi; metsulfuron 3x = 15 g ai/ha,30^c %
same,Dry weight (as a % of the untreated plants),sunflower line B770imi; metsulfuron 4x = 20 g ai/ha,30.2^b %
same,Phytotoxicity Index,sunflower line B770imi; metsulfuron 0.5x = 2.5 g ai/ha,3.3^b
same,Phytotoxicity Index,sunflower line B770imi; metsulfuron 1x = 5 g ai/ha,5.2^b
same,Phytotoxicity Index,sunflower line B770imi; metsulfuron 3x = 15 g ai/ha,9^a
same,Phytotoxicity Index,sunflower line B770imi; metsulfuron 4x = 20 g ai/ha,9^a
same,Dry weight (as a % of the untreated plants),sunflower line RW-B [6]; metsulfuron 2x = 10 g ai/ha,73.9^a %
same,Dry weight (as a % of the untreated plants),sunflower line RW-B [6]; metsulfuron 3x = 15 g ai/ha,60.7^a %
same,Dry weight (as a % of the untreated plants),sunflower line RW-B [6]; metsulfuron 4x = 20 g ai/ha,38.1^a %
same,Phytotoxicity Index,sunflower line RW-B [6]; metsulfuron 0.5x = 2.5 g ai/ha,0^c
same,Phytotoxicity Index,sunflower line RW-B [6]; metsulfuron 1x = 5 g ai/ha,0.6^d
same,Phytotoxicity Index,sunflower line RW-B [6]; metsulfuron 2x = 10 g ai/ha,1.1^d
same,Phytotoxicity Index,sunflower line RW-B [6]; metsulfuron 3x = 15 g ai/ha,2.8^c
same,Dry weight (as a % of the untreated plants),sunflower line B770 [7]; metsulfuron 0.5x = 2.5 g ai/ha,23.7^d %
same,Dry weight (as a % of the untreated plants),sunflower line B770 [7]; metsulfuron 1x = 5 g ai/ha,20^d %
same,Dry weight (as a % of the untreated plants),sunflower line B770 [7]; metsulfuron 2x = 10 g ai/ha,19.4^d %
same,Dry weight (as a % of the untreated plants),sunflower line B770 [7]; metsulfuron 3x = 15 g ai/ha,19.2^d %
same,Dry weight (as a % of the untreated plants),sunflower line B770 [7]; metsulfuron 4x = 20 g ai/ha,19.4^c %
same,Phytotoxicity Index,sunflower line B770 [7]; metsulfuron 0.5x = 2.5 g ai/ha,9^a
same,Phytotoxicity Index,sunflower line B770 [7]; metsulfuron 1x = 5 g ai/ha,9^a
same,Phytotoxicity Index,sunflower line B770 [7]; metsulfuron 2x = 10 g ai/ha,9^a
same,Phytotoxicity Index,sunflower line B770 [7]; metsulfuron 3x = 15 g ai/ha,9^a
same,Phytotoxicity Index,sunflower line B770 [7]; metsulfuron 4x = 20 g ai/ha,9^a
